With `COc1cc2cc3c(Nc4ccc(Oc5ccccc5)c(Cl)c4)c(C#N)cnc3cc2cc1OCCN1CCOCC1`, the melting point (as a rule, the temperature, or range, at which the solid turns liquid) lay in the range of 190 to 194 °C. Next, `Cc1cc(C(F)(F)F)nc2nc(N)ccc12`: 255 to 257 °C.

`O=C(CBr)c1ccc(Br)c(Br)c1` registered a melting point of 60 to 61 °C. For `CCc1cc(C)c(F)c(CC)c1-c1c(O)c(C)nn(C)c1=O`, the melting point was in the range of 193 to 195 °C. The same measure for `COc1cc2[nH]cc(-c3cc4cc(F)cnc4n3S(=O)(=O)c3ccc(C)cc3)c2cc1OC`: 218 °C; for `CC(=NOCCOc1ccc(CC2SC(=O)NC2=O)cc1)c1ccc(NS(=O)(=O)c2ccccc2)cc1` (stereo not drawn): 213 to 215 °C. Next, `Cc1cccc(C(=O)NCc2cccc3c2C(=O)N(C2CCC(=O)NC2=O)C3=O)c1` (stereo not drawn): 218 to 220 °C; `COc1cc(/C=C/CO)ccc1OCc1coc(-c2ccccc2)n1`: 113 to 114 °C. Next, `O=C(Nc1ccc(Cl)c(Cl)c1)c1cc(C(F)(F)F)cc([N+](=O)[O-])c1N1CCCCC1`: 144 °C. Regarding `O=C(OC(c1ccccc1)c1ccccc1)C(C1CC(Cl)=NO1)N1C(=O)c2ccccc2C1=O` (stereo not drawn), the melting point lay within 178 to 179 °C.

With `C=CCOC(=O)N1C[C@@H](S)C[C@H]1CNC(=O)c1ccc(C(=O)NCc2ccc(Cl)c(Cl)c2)cn1`, the melting point was in the range of 101 to 105 °C. The same measure for `COc1ccc(C=CC(=O)Nc2c(-c3ccccc3C)c3cc4c(cc3oc2=O)CCC4)cc1OC`: 159 to 160 °C; for `Cc1nc(SCc2cc(O)nc(O)n2)sc1CC(=O)O`: 246 to 247 °C. Regarding `COc1cccc(-c2nc(-c3ccccc3)c3ncc(-c4ccc(C(C)=O)cc4)cc3n2)c1`, the melting point is 133 to 134 °C. Next, `COC(=O)c1cc2nccnc2cc1N`: 180 to 182 °C; `CCc1cc(CC)nc(Sc2ccnc3cc(Cl)ccc23)n1`: 64.8 to 66 °C; `O=C(Cn1c(-c2ccc(Cl)cc2)nc2cccnc21)N1CCN(c2cccc(C(F)(F)F)c2)CC1`: 185 to 186 °C. Next, `CCOCc1nc(N)c(N=O)c(=O)[nH]1`: 163 to 165 °C; `CCOCCNc1nc(C)c(CCO)c(=O)n1C`: 194 °C. In turn, `Clc1nccnc1OCCOc1cccc(Br)c1` showed a melting point of 57 to 58 °C. The same measure for `Fc1ccc(CN(C(=S)Nc2ccccc2)C2CCCC2)cc1`: 135 °C; for `CC(C)c1nc(COCc2ccccc2)n(CF)c1Sc1cc(Cl)cc(Cl)c1`: 115 to 117 °C; for `N#CCSC(=O)c1ccco1`: 76 to 78 °C. The same measure for `Cc1ccccc1CC(=NC#N)NC(NC(=O)Cc1ccc(Cl)cc1)C(C)(C)C` (stereo not drawn): 183 to 185 °C; for `COn1c(C(C)(C)C)nc2c(N)nc3ccccc3c21`: 195 to 197 °C; for `CC(=O)Nc1cccc(C#Cc2c(F)c(F)nc(F)c2F)c1`: 215 to 216 °C.

Regarding `O=C(Nc1cccc2c1C(=O)c1c-2n[nH]c1-c1ccc(C(=O)NC2CN3CCC2CC3)s1)NN1CCOCC1` (stereo not drawn), the melting point was in the range of 245 to 246 °C. The same measure for `CCC(CC)N1CCN(C)c2c1cc(C)nc2Oc1c(C)cc(C)cc1C`: 78 to 80 °C; for `CCN1C(=O)C(C)(C)N=C(c2ccccc2Cl)c2cc([N+](=O)[O-])ccc21`: 178 °C.

The compound `CC(C)(C)OC(=O)NC1CCN(c2ccc(C(N)=O)cc2)CC1` registered a melting point of more than 270 °C.

With `CCOC(=O)C1=C(N)OC(C)=C(C(=O)OC(C)C)C1c1cccc([N+](=O)[O-])c1` (stereo not drawn), the melting point is 135 °C. Next, `CC(=S)NC[C@H]1CN(c2ccc3c(c2)C[C@@H](C)N3C(=O)CO)C(=O)O1`: 115 to 117 °C; `O=C(Nc1n[nH]c(=S)s1)N[C@@H](Cc1ccccc1)C(=O)N1CCN(c2ncccn2)CC1`: 235 to 237 °C; `CCc1nc2c(C)cc(C)nc2n1Cc1ccc(C(c2ccccc2)C(CC)C(=O)O)cc1` (stereo not drawn): 227 to 229 °C. The same measure for `CC(C)(c1ccc([N+](=O)[O-])cc1)c1ccc([N+](=O)[O-])cc1`: 135 to 137 °C; for `O=C1CCC(N2Cc3c(OCc4ccc(CNC5CCCCC5)cc4)cccc3C2=O)C(=O)N1` (stereo not drawn): 175 to 177 °C; for `Cc1ccc2c(c1)C(NC(=O)CCCCl)c1ccccc1CS2(=O)=O` (stereo not drawn): 203 to 204 °C. `CCCCCCCCCCCCc1ccccc1C(SCC(=O)O)C(=O)O` (stereo not drawn) displayed a melting point of 65 to 66 °C. For the compound `CC(C)(C)c1ccc(S(=O)(=O)C=CSc2ccccc2)cc1`, the melting point came to 258 °C.

For `CCOc1cc(C=C2CCN(C(N)=O)C2=O)ccc1O`, the melting point is 204 to 205 °C.

In the case of `CC(C)c1nc(CC(=O)O)n(C)c1Sc1cc(Cl)cc(Cl)c1`, the melting point was determined as 118 °C. The same measure for `O=C(Nc1ccccc1S(=O)(=O)NCC1CCCCC1)N[C@@H](Cc1ccc(NC(=O)c2c(Cl)cncc2Cl)cc1)C(=O)O`: 214 °C.

In turn, `Cc1ccc(-c2nnc(N3CCC(O)C3)nc2-c2ccc(C)cc2)cc1` (stereo not drawn) registered a melting point of 147 to 150 °C. For `Nc1ccc(-c2ncn(-c3ccc(OC(F)(F)F)cc3)n2)cc1`, the melting point was found to be 147 °C. The same measure for `O=C(NCCc1ccc(O)cc1)c1ccc2n1Cc1ccccc1N(C(=O)COc1ccc(Cl)cc1)C2`: 206 to 207 °C; for `CCOC(=O)N(C)C1CCN(c2nc3ccccc3n2Cc2ccc(F)cc2)CC1`: 125 °C; for `CC(C)(C)C(NC(=O)c1ccc(Cl)cc1)NC(Nc1cccnc1)=C(C#N)C#N` (stereo not drawn): 213 to 214 °C. `CN(C)C=Cc1ccncc1C#N` yielded a melting point of 80 to 83 °C. The same measure for `O=C(Cn1sc2ccccc2c1=O)N1CCN(C(=O)Oc2ccc([N+](=O)[O-])cc2)CC1`: 114 to 118 °C. Compound `CN1C(=O)CCCc2ccc(NC(=O)c3ccc(C(=O)O)cc3)cc21` showed a melting point of more than 270 °C. Next, `Nc1ccc2cccc(Nc3cc(-c4ccc(C(F)(F)F)cc4)ncn3)c2n1`: 211 to 213 °C; `Cc1nc2cccnc2c(O)c1C(=O)c1ccccc1`: more than 260 °C. `CCCn1cc2c(C3C(=O)Nc4ccc(Br)cc43)nc(NCCN3CCOCC3)nc2n1` (stereo not drawn) showed a melting point of 299 to 303 °C. Next, `COc1cc2cc(C(=O)O)c(C(=O)O)nc2cc1OC`: 264 to 266 °C; `CCOC(C)O[C@H]1C(=O)N(C(=O)OC(C)(C)C)[C@H]1c1ccccc1` (stereo partly drawn): 90 to 91 °C. Compound `Clc1ccc(N2CC(c3ccccc3)=C(c3ccccc3)C2)cc1` came in with a melting point of 158 °C. Compound `COc1ccc(C(F)(F)F)cc1Nc1ccc(C(F)(F)F)cc1[N+](=O)[O-]` registered a melting point of 86 to 88 °C. `Cc1c(Br)csc1C(=O)O` displayed a melting point of 188 to 189 °C. The same measure for `COC(=O)[C@@H]1CCCC[C@H]1C[C@@H](O)[C@H](Cc1ccccc1)NC(=O)OC(C)(C)C`: 127 to 128 °C. Next, `N#CCCCN1C(=O)C(O)(c2cccc(Cl)c2)c2ccccc21` (stereo not drawn): 124 to 126 °C; `N#Cc1ccc(-c2ccc(O)cn2)cc1`: 210 °C; `C=CCNc1cc(F)ccc1C(=O)O`: 136 to 139 °C. As to `O=c1oc(-c2cccc(Cl)c2)cc(O)c1SCc1ccccc1`, the melting point is 136 to 137 °C. Next, `CCCCCCC1CC(=O)C2=C(C1)NC(=O)CC2` (stereo not drawn): 142 to 144 °C; `Cc1ccc(N)c(C(=O)NCCC(C)n2ccnc2)c1` (stereo not drawn): 128 to 130 °C. The compound `COc1cc(C(F)(F)F)cc(OC)c1-c1csc(NC(=O)c2cc3ccccc3n2CC(=O)OC(C)(C)C)n1` showed a melting point of 214 to 216 °C. Consider `O=c1ccn(-c2cc3[nH]c(=O)c(=O)[nH]c3cc2F)cc1`, for which the melting point was more than 300 °C.

In the case of `CC(C)=CCCC(C)=CCOc1ccc(C(=O)NCCc2ccncc2)cc1`, the melting point was in the range of 85.2 to 86.1 °C.

Turning to `Cc1c[nH]c(Cc2ccc(O)cc2)n1`, the melting point is 193 to 194 °C.

Turning to `Cc1c(C(=O)C(C)Br)ccn1S(=O)(=O)c1ccccc1` (stereo not drawn), the melting point was 99 to 103 °C. Next, `Cc1ccc(-c2cc(C=O)ccn2)cc1`: 66 °C; `CCCc1nc2cccc(C(=S)OC)c2n1Cc1ccc(-c2ccccc2-c2nc(=O)o[nH]2)cc1`: 220 to 221 °C; `CCOC(=O)c1c(C)nc2scnc2c1NC(C)C`: 48 to 50 °C.

Consider `C=CC(C)(C)OC(=O)c1c(C)nc2c(cnn2CCCCC)c1N`, for which the melting point lay within 77.7 to 78.5 °C. The same measure for `CNC(=O)Cc1c(C)n(-c2ccnc3cc(Cl)ccc23)c2ccc(OC)cc12`: 168 to 169 °C; for `CN1CCN(c2cccc(Nc3ccc(-c4ccoc4)cc3N)c2)CC1`: 129 to 130 °C; for `CC(=O)N[C@@H](C)COC1CCN(c2nc3cc(OCC4CC4)ccc3s2)CC1`: 115 to 116 °C. In turn, `Cc1oc2ccccc2c1OC(C)(C)C(N)=O` displayed a melting point of 116 to 120 °C. Next, `Cc1cc2c(-c3cccc(N)c3)c(CC(=O)Nc3ccc(Cl)cc3C(F)(F)F)c(=O)oc2cc1Cl`: 206 to 207 °C. `CN1C(=O)C(C(=O)c2ccc(Cl)cc2Cl)C(=O)N(C)C1=O` gave a melting point of 123 to 127 °C.

`C=Cc1ccc(CN2C(=O)c3ccccc3C2=O)c(Cl)c1` had a melting point of 141 to 143 °C. `Nc1cc(NS(=O)(=O)CCl)ccc1F`: the melting point lay in the range of 128 to 129 °C. Next, `Fc1ccc(C(CCCN2CCC(c3nn(-c4ccccc4)c4cc(F)ccc34)CC2)c2ccc(F)cc2)cc1`: 113 to 115 °C; `CN(CCOc1ccc(C(N)=O)cc1)CCc1ccc([N+](=O)[O-])cc1`: 116 to 118 °C; `CSc1ccc2cc[nH]c2c1`: 91 to 92 °C.

Regarding `Cc1cc2ncc(C(=O)O)nc2cc1C`, the melting point is 214 to 216 °C.

`COc1ccc2c(c1)CCN1C(=O)[C@H]3CCCN(S(C)(=O)=O)[C@H]3C[C@@H]21` displayed a melting point of 138 to 140 °C. `CC(C)(C)c1cc(CCc2ccccc2NC(=O)NC2CCN(Cc3ccncc3)CC2)cc(C(C)(C)C)c1O` came in with a melting point of 156 to 158 °C.

(Values after a melting point compilation (Tetko et al.; mined from patent text by program, amines drawn as free bases though some values may be those of a salt).)
